The values that follow come from ChEMBL document CHEMBL4334461, “Taicrypnacids A and B, a Pair of C37 Heterodimeric Diterpenoid Stereoisomers from Taiwania cryptomerioides” (J Nat Prod, 2019).

Molecules are shown by their SMILES. The source made the active and inactive calls. The rule behind the calls is not given here.

For one data set, the system named is HCT-116. Put plainly: Cytotoxicity against human HCT116 cells measured after 24 hrs by MTT assay. Type of data set: functional, cell-based. Conditions: HCT-116, 24 h. On the technique in general: Tetrazolium assays rely on reduction of a dye to a coloured formazan, in cell work by metabolically active cells.
In data set [1] the test system is MCF7. Put plainly: Cytotoxicity against human MCF7 cells measured after 24 hrs by MTT assay. The data set is classed as functional, cell-based. Conditions: MCF7, 24 h.
In another data set the test system is U2OS. Nature of the data set: Cytotoxicity against human U2OS cells measured after 24 hrs by MTT assay. Type of data set: functional, cell-based.
For data set [2], the system named is MCF7. Put plainly: Induction of ROS-mediated autophagy in human MCF7 cells assessed as increase in autophagosome numbers. The data set is classed as functional, cell-based.
Data set [3] deals with MCF7. Nature of the data set: Induction of endoplasmic reticular stress in human MCF7 cells assessed as upregulation of XBP1s by Western blot analysis. Type of data set: functional, cell-based.
The test system of data set [4] is MCF7. Nature of the data set: Induction of mitochondrial morphological changes in human MCF7 cells assessed as dilation of mitochondria at 5 to 20 uM measured after 24 hrs by Mito-tracker and Hoechst 33342 staining based confocal microscopy. Type of data set: functional, cell-based.
Data set [5] deals with MCF7. Nature of the data set: Induction of endoplasmic reticulum vacuolation in human MCF7 cells assessed as increase in vacuole formation at 5 to 20 uM measured after 24 hrs by ER-tracker and Hoechst 33342 staining based confocal microscopy. Type of data set: functional, cell-based.
The test system of data set [6] is MCF7. Nature of the data set: Induction of cell death in human MCF7 cells assessed as increase in ROS level measured after 24 hrs by DCFHDA probe based flow cytometry. The data set is classed as functional. On the technique in general: In flow cytometry, cells or beads pass a laser one at a time.
Data set [7] relates to MCF7. Put plainly: Induction of apoptosis in human MCF7 cells assessed as activation of cleaved caspase-9. Type of data set: functional, cell-based.
Another data set deals with MCF-10A. Nature of the data set: Cytotoxicity against human MCF10A cells at 3.125 to 50 uM measured after 24 hrs by MTT assay. Type of data set: cell-based.
Data set [8] deals with MCF7. Put plainly: Induction of apoptosis in human MCF7 cells assessed as activation of cleaved caspase-3. Type of data set: functional, cell-based.
The subject of data set [9] is MCF7. Nature of the data set: Induction of apoptosis in human MCF7 cells assessed as activation of cleaved PARP. The data set is classed as functional, cell-based.
Data set [10] relates to MCF7. Put plainly: Induction of ROS-mediated autophagy in human MCF7 cells assessed as downregulation of p62. The data set is classed as functional, cell-based.
The test system of data set [11] is MCF7. Nature of the data set: Induction of ROS-mediated autophagy in human MCF7 cells assessed as increase in LC3-2/LC3-1 ratio. Type of data set: functional, cell-based.
Data set [12] deals with MCF7. Put plainly: Induction of apoptosis in human MCF7 cells assessed as activation of cleaved caspase-7. Type of data set: functional, cell-based.
For data set [13], the system named is MCF7. Nature of the data set: Induction of cell death in human MCF7 cells assessed as increase in intracellular calcium measured after 24 hrs by Fluo-4/AM probe based confocal microscopic analysis. Type of data set: functional.
For data set [14], the system named is MCF7. Put plainly: Induction of endoplasmic reticular stress in human MCF7 cells assessed as upregulation of GRP78 by Western blot analysis. Type of data set: functional, cell-based. (In general: A western blot detects proteins with antibodies after separation by electrophoresis.)
Data set [15] has as its system MCF7. Nature of the data set: Induction of endoplasmic reticular stress in human MCF7 cells assessed as upregulation of IRE1a by Western blot analysis. Type of data set: functional, cell-based.
Data set [16] concerns MCF7. Put plainly: Induction of mitochondria-mediated apoptosis in human MCF7 cells. The data set is classed as functional, cell-based.
The subject of data set [17] is MCF7. Put plainly: Induction of morphological changes in human MCF7 cells assessed as change in vacuole at 5 to 20 uM measured after 24 hrs by optical microscopy analysis. Type of data set: functional, cell-based.
The test system of data set [18] is MCF7. Nature of the data set: Induction of endoplasmic reticular stress in human MCF7 cells assessed as upregulation of CHOP by Western blot analysis. The data set is classed as functional, cell-based.

Consider `C=C1CC[C@@H]2[C@](C)(CCC[C@@]2(C)C(=O)O)[C@H]1C/C=C(\C)[C@H]1C[C@H]2C[C@H]3C(C)(C)CCC[C@]3(C)c3ccc(O)c(c32)O1`, for which the results for the IC50 with HCT-116, in the data set with MCF7 [1] and with U2OS were 7.8 µM, 9.9 µM and 9.7 µM, respectively.

For the compound `C=C1CC[C@@H]2[C@](C)(CCC[C@@]2(C)C(=O)O)[C@H]1C/C=C(\C)[C@@H]1C[C@@H]2C[C@H]3C(C)(C)CCC[C@]3(C)c3ccc(O)c(c32)O1`, the result in the data set with MCF7 [2], in the data set on MCF7 [3], with MCF7 [4], with MCF7 [5], in the data set on MCF7 [7] and in the data set on MCF7 [8] was Active. In addition, the result in the data set with MCF7 [9], in the data set on MCF7 [10], in the data set with MCF7 [11], with MCF7 [12], with MCF7 [14] and with MCF7 [15] was Active. Also, the result with MCF7 [16], in the data set with MCF7 [17] and with MCF7 [18] was Active. Further, the values for the Activity entry with MCF7 [6], with MCF-10A and in the data set with MCF7 [13] were “Dose-dependent effect”, “Toxic” and “Dose-dependent effect”, respectively. Also, the IC50 (usually the point on the concentration scale where inhibition reaches its midpoint) in the data set with HCT-116 stood at 7.5 µM; in the data set on MCF7 [1] it was 7.4 µM; with U2OS, 8.4 µM.

For `C=C1CC[C@@H]2[C@](C)(CCC[C@@]2(C)C(=O)OC)[C@H]1C/C=C(\C)[C@@H]1C[C@@H]2C[C@H]3C(C)(C)CCC[C@]3(C)c3ccc(O)c(c32)O1`, the IC50 with HCT-116, in the data set on MCF7 [1] and in the data set on U2OS was more than 50 µM each time.
